# Patent publication US7778782B1, “Peroxisome proliferation activated receptor alpha (PPARα) signatures” (priority 2002, dated 2010)
# Marks after values point to notes of the source that are not given here.
# Test system: PPARα response signature
# Assay: Signature Projection Score (SPS) of liver gene expression against the PPARα response signature
# Format: in vivo, male Sprague-Dawley rats
# Conditions: rat liver expression data in DrugMatrix database compared with PPARα response signature; normalised so highest training treatment = 100; *= p < 0.01, **= p < 0.001
# Protocol: Compound dosing was based on the acute dose LD50s recorded in published reference or literature sources. Duplicate rats were dosed at each of 3 doses: at LD50, one-half and one-fourth of LD50. The MTD (maximum tolerated dose) was then selected as the dose at which the animals […] 5-10% body weight during the 5-day range finding study. […] In addition, the clinical observations must show no or mild clinical signs during the whole of the range-finding study. At the next highest dose, signs and symptoms of adverse effects and exceeding those of the MTD should be seen to occur. Should these criteria not be met, the range-finding study is repeated using a modified dose range.
# After determination of the MTD and FED for a compound, each compound was dissolved in a vehicle for administration on day 1 of the study (additional daily doses were stored as frozen aliquots from this initial formulation). Each compound was administered to three individual male Sprague-Dawley rats for each of the two doses (MTD and FED) for one of four different times (0.25 day, 1 day, 3 days, and 5 or 7 days), yielding a total of up to 24 animals per compound study. Vehicle choice was based on solubility of the compound, effect of food on adsorption, and the vehicles used in the literature reports examined during the FED selection investigations, described above. Generally, the route and vehicle in which the FED was defined are used. When there was a choice of routes and vehicles, oral routes were chosen over injection routes. Many compounds, especially oncolytics, are only administerable intravenously. In such cases, the compound was administered as an intravenous formulation into the tail vein. Orally administered compounds were given dissolved in either water, 1% carboxymethycellulose (CMC) or corn oil. Intravenously and intraperitoneally administered compounds were given in 0.9% saline. Subcutaneously administered compounds were given in corn oil. Animal body weights were determined at 1 day and, where appropriate, at 4 days, before necropsy, and clinical observations were made on a daily basis. Control animals were dosed with vehicle only. Three male animals were used for each dose and time combination used for the compound treatment.
# Tissue harvest and handling: After the allocated treatment time, the tissues from the animals were harvested. […] All the tissues collected were divided to provide samples for histopathological analyses, and the remainder of each tissue was then snap-frozen. […] The parameters were measured using a Hitachi-911 clinical chemistry analysis instrument according to the manufacturer's instructions. The following blood constituents were measured: Blood Urea Nitrogen (BUN), Creatinine (CRE), Glucose (GLU), Alanine Transaminase (ALT), Aspartate Aminotransferase (AST), Alkaline Phosphatase (ALP), Total Bilirubin (TBI), Sodium (SOD), Potassium (POT), Chloride (CHL), Phosphorus (PHO), Total Protein (TPR), Albumin (ALB), Cholesterol (CHO), Creatine Phosphokinase (CPK), Lactate Dehydrogenase (LDH), Carbon Dioxide (CO2), Uric Acid (UA), and Lipase. […] The parameters were measured using a Baker 9000 blood cell analysis instrument according to the manufactures instructions. The following blood constituents were measured: Leukocyte count (WBC), Differential Leukocyte counts, Erythrocyte count (RBC), Hemoglobin concentration (HGB), Hematocrit (HCT), Mean Corpuscular Volume (MCV), Mean Corpuscular Hemoglobin (MCH), Mean Corpuscular Hemoglobin Concentration (MCC), Thrombocyte Count (PLC). Histopathology: Histopathological analyses of hematoxylin and eosin-stained tissue sections were performed and peer-reviewed by board-certified (Diplomate, American College of Veterinary Pathologists) veterinary pathologists.
Compound,SPS (Sequence Projection Score),SPS (Signature Projection Score)
CC1=C(CC(=O)O)c2cc(F)ccc2/C1=C\c1ccc([S+](C)[O-])cc1 (centres unmarked),4,–
C[C@]12CCC(=O)C=C1CC[C@@H]1[C@@H]2CC[C@@]2(C)[C@H]1CC[C@]2(C)O [17-METHYLTESTOSTERONE],5,–
CC(C)c1c(C(=O)Nc2ccccc2)c(-c2ccccc2)c(-c2ccc(F)cc2)n1CC[C@@H](O)C[C@@H](O)CC(=O)O [ATORVASTATIN],22*,–
Cn1cnc([N+](=O)[O-])c1Sc1ncnc2nc[nH]c12 [AZATHIOPRINE],7,–
C[C@]12CC[C@@H]3c4ccc(O)cc4CC[C@H]3[C@@H]1CC[C@@H]2O [BETA-ESTRADIOL],11,–
"CC(C)(Oc1ccc(CCNC(=O)c2ccc(Cl)cc2)cc1)C(=O)O [BEZAFIBRATE, 2-(4-(2-((4-chlorobenzoyl)amino)ethyl)phenoxy)-2-methylpropanoic acid]",–,102**
CCCCC(CC)COC(=O)c1ccccc1C(=O)OCC(CC)CCCC (centres unmarked) [BIS-2-ETHYLHEXYL PHTHALATE],68**,–
Oc1c(Cl)cc(Cl)cc1Sc1cc(Cl)cc(Cl)c1O [BITHIONOL],20,–
COCc1c(C(C)C)nc(C(C)C)c(/C=C/[C@@H](O)C[C@@H](O)CC(=O)O)c1-c1ccc(F)cc1 [CERIVASTATIN],15,–
O=C(O)CCCc1ccc(N(CCCl)CCCl)cc1 [CHLORAMBUCIL],–,8
N.N.[Cl][Pt][Cl] [CISPLATIN],9,–
"CCOC(=O)C(C)(C)Oc1ccc(Cl)cc1 [CLOFIBRATE, 2-(p-chlorophenoxy)-2-methylpropionic acid ethyl ester]",99**,–
Clc1ccccc1C(c1ccccc1)(c1ccccc1)n1ccnc1 [CLOTRIMAZOLE],4,–
CC(=O)O[C@]1(C(C)=O)CC[C@H]2[C@@H]3C=C(Cl)C4=CC(=O)[C@@H]5C[C@@H]5[C@]4(C)[C@H]3CC[C@@]21C [CYPROTERONE ACETATE],5,–
C[C@@H]1C[C@H]2[C@@H]3CCC4=CC(=O)C=C[C@]4(C)[C@@]3(F)[C@@H](O)C[C@]2(C)[C@@]1(O)C(=O)CO [DEXAMETHASONE],9,–
C#C[C@]1(O)CC[C@H]2[C@@H]3CCc4cc(O)ccc4[C@H]3CC[C@@]21C [ETHINYLESTRADIOL],19,–
OC(Cn1cncn1)(Cn1cncn1)c1ccc(F)cc1F [FLUCONAZOLE],4,–
"Cc1ccc(C)c(OCCCC(C)(C)C(=O)O)c1 [GEMFIBROZIL, 5-(2,5-dimethylphenoxy)-2,2-dimethylpentanoic acid]",65*,–
O=P1(NCCCl)OCCCN1CCCl (centres unmarked) [IFOSFAMIDE],9,–
CC(=O)N1CCN(c2ccc(OCC3COC(Cn4ccnc4)(c4ccc(Cl)cc4Cl)O3)cc2)CC1 (centres unmarked) [KETOCONAZOLE],6,–
Cc1oncc1C(=O)Nc1ccc(C(F)(F)F)cc1 [LEFLUNOMIDE],5,–
CC#C[C@]1(O)CC[C@H]2[C@@H]3CCC4=CC(=O)CCC4=C3[C@@H](c3ccc(N(C)C)cc3)C[C@@]21C [MIFEPRISTONE],7,–
"CN(C)C=O [N,N-DIMETHYLFORMAMIDE]",5,–
C#C[C@]1(OC(C)=O)CC[C@H]2[C@@H]3CCC4=CC(=O)CC[C@@H]4[C@H]3CC[C@@]21C [NORETHINDRONE ACETATE],5,–
c1ccc2c(c1)Nc1ccccc1S2 [PHENOTHIAZINE],23*,–
CC(=O)[C@H]1CC[C@H]2[C@@H]3CCC4=CC(=O)CC[C@]4(C)[C@H]3CC[C@]12C [PROGESTERONE],5,–
O=C(c1ccc(OCCN2CCCCC2)cc1)c1c(-c2ccc(O)cc2)sc2cc(O)ccc12 [RALOXIFENE],44*,–

# Same assay, conditions: rat liver gene expression, in words
row,Compound,similarity to the PPARα response signature
1,CC(C)c1c(C(=O)Nc2ccccc2)c(-c2ccccc2)c(-c2ccc(F)cc2)n1CC[C@@H](O)C[C@@H](O)CC(=O)O [ATORVASTATIN],significantly similar to the signature
2,CCCCC(CC)COC(=O)c1ccccc1C(=O)OCC(CC)CCCC (centres unmarked) [BIS-2-ETHYLHEXYL PHTHALATE],significantly similar to the signature

# Same assay, conditions: rat, in vivo
Compound,SPS (Signature Projection Score),similarity to the PPARα response signature
CC(C)n1c(/C=C/C(O)CC(O)CC(=O)O)c(-c2ccc(F)cc2)c2ccccc21 (centres unmarked) [FLUVASTATIN],35*,–
CC[C@H](C)C(=O)O[C@H]1C[C@@H](C)C=C2C=C[C@H](C)[C@H](CC[C@@H]3C[C@@H](O)CC(=O)O3)[C@H]21 [LOVASTATIN],45*,significantly similar to the signature
